{"source": "patent US12297457B2", "about": "“Esophageal tissue and/or organoid compositions and methods of making same” (Children's Hospital Medical Center, priority 2017, dated 2025)", "molecules": {"B1": {"name": "FGF10: recombinant human FGF10 (protein, UniProt O15520 38-208, looked up)", "Fibroblast growth factor 10": "QALGQDMVSPEATNSSSSSFSSPSSAGRHVRSYNHLQGDVRWRKLFSFTKYFLKIEKNGKVSGTKKENCPYSILEITSVEIGVVAVKAINSNYYLAMNKKGKLYGSKEFNNDCKLKERIEENGYNTYASFNWQHNGRQMYVALNGKGAPRRGQKTRRKNTSAHFLPMVVHS"}}, "key": {"[1]": {"system": "Xenopus endoderm explants", "assay": "nkx2-1 in situ hybridization of Xenopus endoderm explants", "type": "cell-based, Xenopus laevis", "details": "sox2 morpholino knock down; explants analysed at stage NF35", "description": "Xenopus laevis adults were purchased from the Nasco (Fort Atkinson, Wis.), and housed according to CCHMC IACUC protocols. Ovulation, in vitro fertilization, and de-jellying of embryos were performed as described (Sive et al., 2000). A mixture of previously validated Sox2 morpholinos (MOs; Van Raay et al., 2005) targeting the 5′UTR (Sox2-UTR MO) and the ATG start codon (Sox2-ATG MO) were injected at the 8-cell stage into each vegetal blastomere (2 ng total MO per blastomere, 8 ng total per embryo) to target endoderm. MOs were synthesized and purchased from GeneTools. Equal amount of control MO was used in control injections.\nFor Xenopus explant studies, stage NF20 foregut endoderm tissue was micro-dissected in 1×MBS (Modified Barth's Saline; Sive et al., 2000)+50 ug/mL gentamycin sulfate (MP Biochemicals), +4% Ficoll-400 (Sigma) and explants were then cultured in 0.5×MBS+0.1% Fatty Acid Free BSA (Fisher)+50 ug/mL gentamycin sulfate with or without the following concentrations of small molecules or recombinant proteins from stages […] (approximately 48 hours): 3.5 μM Bio (Tocris), 50 ng/mL recombinant human BMP4 (R&D systems).\nIn situ hybridization on mouse sections was performed by generating DIG-labeled probes from linearized mouse cDNA plasmids. […]"}, "[2]": {"system": "foregut spheroids", "assay": "Anterior-posterior patterning of foregut spheroids (qPCR, IF)", "type": "cell-based, human", "details": "TGFβ inhibitor added during foregut induction; SB431542, 10 μM", "description": "Confluent hPSC cultures were treated with Acutase (STEMCELL Technologies) to resuspend as single cells in mTeSR1 and Y-27632 (10 μM, Tocris) and plated on Matrigel. On the following day, differentiation into definitive endoderm was carried out as previously described (McCracken et al., 2014). Briefly, cells were treated with Activin A (100 ng mL-1, R&D systems, Minneapolis, Minn.) and BMP4 (50 ng mL-1, R&D systems) on the first day in RPMI 1640 media (Life Technologies). Cells in the following two days were treated with only Activin A (100 ng mL-1) in RPMI 1640 with increasing concentrations 0.2% and 2% of HyClone defined fetal bovine serum (dFBS, GE Healthcare Life Sciences).\nFor anterior foregut monolayer cultures, cells were treated for 3 days in Noggin (200 ng mL-1) in RPMI 1640 with 2% dFBS, with all-trans retinoic acid (2 μM, Sigma, St. Louis, Mo.) the 3rd day.\n(§1) Alternately, for the generation of anterior foregut spheroids, from definitive endoderm, cells were treated with FGF4 (500 ng mL-1, R&D systems), Noggin (200 ng mL-1) for 3 days in RPMI 1640 with 2% dFBS. Additional factors were tested during this time (described in results), such as CHIR99021 (“chiron” or “chr”, 2 μM, Tocris), Wnt3a (500 ng mL-1, R&D systems), SB431542 (10 μM, Tocris), DEAB (10 μM, Sigma), and retinoic acid (2 μM).\nTissue cultures were fixed with 4% paraformaldehyde at either room temperature for 15 minutes, 4° C. for 2 hours for cryosectioning, or 4° C. overnight for paraffin embedding/sectioning and mouse embryos. For paraffin embedding and sectioning, following fixation, tissues were dehydrated and embedded into paraffin blocks. Afterwards, paraffin-sectioned slides were deparaffinized and subjected to antigen retrieval in 10 mM sodium citrate for 30 minutes prior to staining. For cryosectioning, tissues were thoroughly washed in PBS, left in 30% sucrose overnight, embedded in OCT compound (VWR), and sectioned at a thickness of 8 μm. Commonly, slides were then permeabilized with 0.5% TritonX-100 in PBS for 10 minutes, blocked in 5% normal donkey serum (Jackson ImmunoResearch) for 1 hour, and incubated in primary antibody overnight at 4° C. On the next day, slides were thoroughly washed in PBS, incubated in secondary antibody (at 1:500) for 1 hour, and then thoroughly washed again. For EdU visualization, Applicant used the Click-iT EdU Alexa Fluor 488 Imaging Kit (Invitrogen) prior to blocking. For wholemount immunofluorescence staining, embryos were placed in 100% methanol immediately after fixation. Embryos were then permeabilized with Dent's Bleach (4:1:1 MeOH:DMSO:30% H2O2) for 2 hours at room temperature, rehydrated with methanol washes, and blocked for several hours at room temperature to overnight at 4° C. Primary antibodies were applied and embryos incubated overnight at 4° C. Then, embryos were thoroughly washed in 0.1% TritonX-100 in PBS before incubating in secondary antibodies overnight at 4° C. Finally, embryos were washed again, dehydrated with methanol washes, and cleared with Murray's Clear (2:1 benzyl benzoate:benzyl alcohol, Sigma) at least 15 minutes prior to imaging. For a list of antibodies and dilutions used, please see Table 2.\nSpheroid and organoids were harvested in total, including the embedding matrigel. Collagen plugs from the organotypic raft cultures were first removed from the transwell on day 14, and subsequently harvested in total. Total RNA was isolated using the NucleoSpin RNA kit (Macherey-Nagel) and reverse transcribed to cDNA using the SuperScript VILO cDNA synthesis kit (ThermoFisher Scientific). For qRT-PCR, Applicant used Quantitect SYBR-Green master mix (Qiagen) and ran the reaction on a QuantStudio 6 machine (ThermoFisher Scientific). For a list of primers used, please see Table 1."}, "[3]": {"system": "AFG spheroids", "assay": "Dorsal-ventral patterning / respiratory induction of anterior foregut spheroids (qPCR, IF)", "type": "cell-based, human", "details": "TGFβ inhibitor added during foregut induction; day 9 spheroids", "description": "as §1\nAnterior foregut spheroids were transferred into 50 μL droplets of Matrigel, and are cultured for 3-58 days in the base (“Gut”) media of Advanced DMEM/F12 (ThermoFisher Scientific) supplemented with B27 supplement (1×, ThermoFisher Scientific), N2 supplement (1×, ThermoFisher Scientific), HEPES (13 mM, ThermoFisher Scientific), L-Glutamine (2 mM ThermoFisher Scientific), penicillin/streptomycin (1×, ThermoFisher Scientific), and EGF (100 ng mL^−1, R&D systems). In addition to this base media, the first three days were supplemented with Noggin (200 ng mL^−1), FGF10 (50 ng mL^−1), and CultureOne supplement (1×, ThermoFisher Scientific). […]\nSpheroid and organoids were harvested in total, including the embedding matrigel. […] For qRT-PCR, Applicant used Quantitect SYBR-Green master mix (Qiagen) and ran the reaction on a QuantStudio 6 machine (ThermoFisher Scientific). […]"}, "[4]": {"system": "anterior foregut (AFG) cultures", "assay": "Doxycycline-induced CDX2 in anterior foregut cultures (IF quantification)", "type": "cell-based, human", "details": "AFG cultures treated for 1 day", "description": "Human embryonic stem cell (hESC) line H1 (WA01, person) were purchased from WiCell. iPSC line iPS106 was generated in-house and approved by the institutional review board at CCHMC. All hPSCs were maintained on feeder-free cultures: cells were plated on hESC-qualified Matrigel (BD Biosciences, San Jose, Calif.) and maintained at 37° C. with 5% CO2 with daily replacement of mTeSR1 media (STEMCELL Technologies, Vancouver, Canada); cells were passaged routinely every 4 days using Dispase (STEMCELL Technologies). The HA-tagged SOX2, CDX2, or FANCA dox-inducible lines were generated by first cloning the human SOX2 ORF, CDX2 ORF, or FANCA ORF into pINDUCER20 (respectively) (Addgene #44012, Meerbrey et al., 2011). Next, lentivirus was generated with help of the Viral Vector Core Facility at CCHMC. The lentivirus for HA-SOX2 and CDX2 were transduced into hESCs with 2 μL of virus; these lines were maintained on selection with mTeSR1 and G418 (500 μg mL-1, ThermoFisher Scientific). The lentivirus for FANCA were transduced prior to the iPS106 line generation, as FANCA is required for maintenance of hPSC properties. The hESC H1 line (and transduced derivatives) was used in all experiments excluding Fanconi Anemia modeling in HEOs, which used the iPS106 line. […]"}, "[5]": {"system": "dorsally-patterned AFG spheroids", "assay": "Outgrowth of dorsally-patterned AFG spheroids into esophageal organoids", "type": "cell-based, human", "details": "added from day 6 to day 13", "description": "Anterior foregut spheroids were transferred into 50 μL droplets of Matrigel, and are cultured for 3-58 days in the base (“Gut”) media of Advanced DMEM/F12 (ThermoFisher Scientific) supplemented with B27 supplement (1×, ThermoFisher Scientific), N2 supplement (1×, ThermoFisher Scientific), HEPES (13 mM, ThermoFisher Scientific), L-Glutamine (2 mM ThermoFisher Scientific), penicillin/streptomycin (1×, ThermoFisher Scientific), and EGF (100 ng mL^−1, R&D systems). In addition to this base media, the first three days were supplemented with Noggin (200 ng mL^−1), FGF10 (50 ng mL^−1), and CultureOne supplement (1×, ThermoFisher Scientific). FGF10 and CultureOne supplementation is continued until the end of the first week in three-dimensional culture. Media was replaced every 3-4 days. For EdU labeling, media was supplemented with EdU (10 μM Invitrogen) for a defined period of time, and was removed by washing with sterile PBS twice before replacing with media without EdU."}}, "data": [{"molecule": "O=C1Nc2cc(Br)ccc2/C1=C1/Nc2ccccc2/C1=N\\O", "note": "[Bio]", "values": [{"measurement": "nkx2-1 expression", "setting": "[1]", "value": "did not activate nkx2-1 expression"}]}, {"molecule": "NC(=O)c1ccc(-c2nc(-c3ccc4c(c3)OCO4)c(-c3ccccn3)[nH]2)cc1", "note": "[TGFβ inhibitor, SB431542, reference compound]", "values": [{"measurement": "posterior foregut markers", "setting": "[2]", "value": "increase in posterior foregut markers"}, {"measurement": "upregulation of NKX2-1 on respiratory induction", "setting": "[3]", "value": "reduces upregulation of NKX2-1"}]}, {"molecule": "C[C@H]1c2cccc(O)c2C(=O)C2=C(O)[C@]3(O)C(=O)C(C(N)=O)=C(O)[C@@H](N(C)C)[C@@H]3[C@@H](O)[C@@H]21", "note": "[doxycycline, Doxycycline]", "values": [{"measurement": "doxycycline concentration at which CDX2 induction saturates", "setting": "[4]", "value": "100 to 500", "unit": "ng/mL"}]}, {"molecule": "B1", "values": [{"measurement": "efficiency of spheroid to organoid outgrowth", "setting": "[5]", "value": "improved efficiency of spheroid to organoid outgrowth"}, {"measurement": "patterning and differentiation into esophageal organoids", "setting": "[5]; data not shown", "value": "did not affect"}]}]}
